# Results from US10327423B2, “Antimicrobial compounds and compositions, and uses thereof” (Akeso Biomedical, Inc., priority 2014, dated 2019).
# “Also recorded” adds a separate entry of the source.
# Columns and labels:
# [1] = tested on: kanamycin resistant strain of Enteropathogenic E. coli EPEC (E2348/69); assay: Growth of kanamycin resistant EPEC with Fe-QA and kanamycin (patch on growth plate, growth curve); type: cell-based, Escherichia coli
# Description: A kanamycin resistance gene was introduced into the genome of Enteropathogenic E. coli EPEC, (E2348/69), genotype; Wildtype EPEC-O-17:H6 allowing the kanamycin resistant strain of EPEC to grow in the presence of a patch that has been immersed in kanamycin (at a concentration of 50 μg/mL). The kanamycin resistant strain of EPEC was then immersed in a patch in a solution of Fe-QA.
# [2] = tested on: Staphylococcus epidermidis F1513; assay: Biofilm formation on plastic coated UV beads; type: cell-based; settings: different concentrations of Fe-QA; T=24 h
# Description: (§1) Bacteria (Enterococcus faecalis NCTC 12697, Staphylococcus epidermidis F1513 and Staphylococcus aureus ATCC 25923) were grown on Brain heart infusion (BHI) passaged to new medium either containing Fe-QA or alone. Growth suspensions were prepared at 0.0001 OD/ml and then allowed to grow at 37° C. under normal atmospheric conditions for 24 h in BHI with plastic coated UV beads (Lascells). […], 10 μl suspension was serially diluted 10 fold to 10-3, 10-4, 10-5, 10-6, 10-7, 10-8. For each dilution, 10 μl was spotted on BHI agar plates and colonies counted after 24 h. The beads were also removed washed in PBS before adding to 1 ml PBS. After vortex mixing, 10 μl of the cell suspension was serially diluted as above and cell counts carried out.
# The effect of Fe-QA on biofilm formation by S. epidermidis F1513 was tested as described in the materials and methods of Example 1.
# [3] = tested on: Camyplobacter jejuni NCTC 11168; assay: Motility on brain-heart infusion plate; type: cell-based, Campylobacter jejuni; settings: FeQ 34 μM; 43 hours
# Description: Camyplobacter jejuni NCTC 11168 was treated with FeQ (34 μM) and a plate containing brain-heart infusion (BHI) medium inoculated with […], 2×10^5 colony forming units of the treated bacteria and the plate was cultured for 43 hours. The growth and motility of the bacteria after treatment with FeQ was compared to a positive control where the bacteria had not been treated with FeQ, and also to a negative control where no bacteria were applied to a plate of the BHI medium. […] In contrast, Campylobacter jejuni that was not treated with FeQ was motile, and spread around the culture plate. There was no growth visible, as expected, on the plates that were not inoculated with bacteria.
# [4] = tested on: bacterial flora present in the mouth; assay: Biofilm formation on extracted human teeth (CEPLAC staining); type: cell-based; settings: FeQ 340 μM; 48 hours of culturing
# Description: Molar teeth were extracted from human patients, and mouth swabs taken from each patient to obtain samples of each patient's bacterial flora present in the mouth. The mouth swabs were cultured in the laboratory using LB media in order to grow bacterial populations ordinarily present in the mouth of each patient. The extracted teeth were washed and brushed extensively using PBS buffer and ethanol. Each patient's tooth was then placed in the bacterial culture prepared from that patient's bacterial flora sample, and cultured aerobically for 24 hours in LB media. The teeth were then stained with CEPLAC™ (Manx Healthcare Ltd, Warwick, UK), and washed three times with PBS-Tween (50 mL) to determine if biofilm had been formed on the teeth.
# All teeth stained red indicating the presence of biofilm on the teeth after just 24 hours. The same teeth were then cleaned using PBS buffer and ethanol, and the procedure repeated except with 48 hours of culturing in the presence of FeQ (340 μM).
# [5] = tested on: Pseudomonas aeruginosa PAO-1; assay: Biofilm coverage rate on glass slides (SYTO17, laser scanning microscopy); type: cell-based; settings: Fe-QA 100 μM; 72 hours
# Description: (§2) Pseudomonas aeruginosa PAO-1, and a clinically isolated uropathogenic Escherichia coli UPEC-536 were routinely grown on either LB (Luria-Bertani, Oxoid, UK) agar plates at 37° C. or in broth at 37° C. with 200 rpm shaking. UV-sterilized glass slides were incubated in either 15 mL RPMI-1640 defined medium (Sigma, UK) or 15 mL RPMI-1640 with Fe-QA inoculated with diluted (OD600=0.01) bacteria from overnight cultures at 37° C. with 60 rpm shaking for 72 hours. The slides were removed from bacterial culture and washed with 15 mL phosphate buffered saline at room temperature for 5 minutes three times and then rinsed with distilled H2O. After washing, the slides were stained with 20 μM SYTO17 dye (Invitrogen, UK) at room temperature for 30 minutes. After removing excess staining dye and air-drying, the samples were examined using a Carl Zeiss LSM 700 Laser Scanning Microscope with ZEN 2009 imaging software (Carl Zeiss, Germany). The coverage rate of bacteria on the surface was analysed using open source Image J 1.44 software (National Institute of Health, US).
# [6] = tested on: uropathogenic Escherichia coli UPEC-536; assay: as above; type: cell-based; settings: Fe-QA 0.1 μM, 1 μM, aM and 100 μM; 72 hours
# Description: as §2
# [7] = tested on: Staphylococcus aureus ATCC 25923; assay: Biofilm formation on plastic coated UV beads; type: cell-based; settings: different concentrations of Fe-QA; T=24 h
# Description: as §1
# The effect of Fe-QA on biofilm formation by S. aureus was tested as described in the materials and methods of Example 1.
# [8] = tested on: mixed population of clinical isolates (PAO Mixed); assay: Growth (OD600) in LB with Amikacin, tolerance to antibiotic; type: cell-based, Pseudomonas aeruginosa; settings: 34, 100, 200 and 340 μM of FeQ or FePhe; Amikacin 10 µg/ml; 17.5 hours at 37° C.
# Description: (§3) To investigate effects upon antibiotic resistance, a laboratory strain of Psuedomonas aeruginosa (PAO1N) and a mixed population of clinical isolates (PAO Mixed) were incubated in Luria-Bertani (LB) media alone, or with different concentrations (34 μM, 100 μM, 200 μM and 340 μM) of FeQ or FePhe.
# (§4) Each of the different media, bar one control, contained 10 µg/ml of the aminoglycoside antibiotic Amikacin.
# (§5) 10 μl of the bacterial strains were added into each well of a 96-well micro-titer plate, before 290 μl of the relevant media was added to wells. Each different condition was repeated in sextuplicate.
# (§6) The plate was incubated at 37° C. within a micro-titer plate reader for 17.5 hours, with the OD600 read every 30 minutes.
# [9] = tested on: Psuedomonas aeruginosa (PAO1N); assay: as above; type: cell-based, Pseudomonas aeruginosa; settings: 34, 100, 200 and 340 μM of FeQ or FePhe; Amikacin 10 µg/ml; 17.5 hours at 37° C.
# Description: as §3, §4, §5, §6
smiles,measurement,setting,value
"O=C1[O][Fe]23([O]C(=O)[C@]4(C[C@@H](O)[C@H](O)[C@H](O)C4)[O]2)([O]C(=O)[C@]2(C[C@@H](O)[C@H](O)[C@H](O)C2)[O]3)[O][C@@]12C[C@@H](O)[C@H](O)[C@H](O)C2 [FeQ, a complex of quinic acid with Fe III]",rate of growth (growth curve) relative to kanamycin alone,[1]; kanamycin and Fe-QA,inhibited
same,rate of growth (growth curve),[1]; medium only containing Fe-QA,most rapid growth
same,bacterial growth on plate around patch,[1]; patch immersed in Fe-QA alone,no impact on the growth; also recorded: no significant effect on bacterial growth
same,bacterial growth on plate around patch,[1]; patch immersed in Fe-QA and kanamycin (50 μg/mL),fail to grow
same,biofilm formation on plastic coated UV beads,[2],inhibited
same,motility of bacteria on BHI plate,[3],not motile
same,biofilm on human teeth (red CEPLAC staining),[4],no teeth stained red
same,biofilm formation (coverage rate on glass slide),[5],inhibits
same,biofilm formation (coverage rate on glass slide),[6],inhibits
same,biofilm formation on plastic coated UV beads,[7],inhibited
same,tolerance to the aminoglycoside Amikacin (OD600 growth),[8],reducing tolerance
same,tolerance to the aminoglycoside Amikacin (OD600 growth),[9],reducing tolerance
